Laboratory results from patent US12077503B2, “Substituted cyclic amides and their use as herbicides” (FMC CORPORATION, priority 2015, dated 2024).

What was measured:
Type in all cases: in vivo
[1] = test system: ivy-leaved morning glory (Ipomoea hederacea); experiment: Test G Post-Emergence Protocol; conditions: Ipomoea, post-emergence, 312 h; for pest or weed control at 15.625 g/ha: 15.625 g ai/ha, evaluated after 13 days (100=total damage to plant; 0=no damage to plant), read-out: Morningglory, Ivy-leaved damage rating; for pest or weed control at 62.5 g/ha: 62.5 g ai/ha, read-out: Morningglory, Ivy-leaved damage rating (100=total damage to plant; 0=no damage to plant); for pest or weed control at 62.5 g/ha / pest or weed control at 250 g/ha: evaluated after 13 days; for pest or weed control at 250 g/ha: 250 g ai/ha, read-out: damage to plant, Morningglory, Ivy-leaved (100=total damage to plant; 0=no damage to plant)
Procedure, shortened: (§1)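 Seedlings grown 8 days in soil in a glasshouse (24/16 °C day/night, 14 h light, 65% humidity) were sprayed post-emergence with compound in acetone/water 50:50 plus 0.5% Tween 20 at 15.625, 62.5 or 250 g/ha. Damage was scored after 13 days on a 0–100 scale (100 = total damage).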

[2] = test system: velvetleaf (Abutilon theophrasti); experiment: Test G Post-Emergence Protocol; conditions: Abutilon theophrasti, post-emergence, 312 h; for pest or weed control at 15.625 g/ha: 15.625 g ai/ha, evaluated after 13 days (100=total damage to plant; 0=no damage to plant), read-out: Velvetleaf damage rating; for pest or weed control at 62.5 g/ha: 62.5 g ai/ha, read-out: Velvetleaf damage rating (100=total damage to plant; 0=no damage to plant); for pest or weed control at 62.5 g/ha / pest or weed control at 250 g/ha: evaluated after 13 days; for pest or weed control at 250 g/ha: 250 g ai/ha, read-out: damage to plant, Velvetleaf (100=total damage to plant; 0=no damage to plant)
Procedure, shortened: as §1

[3] = test system: corn (Zea mays); experiment: Test G Post-Emergence Protocol; conditions: Zea mays, post-emergence, 312 h; for plant injury at 15.625 g/ha: 15.625 g ai/ha, evaluated after 13 days (100=total damage to plant; 0=no damage to plant), read-out: Corn damage rating; for plant injury at 62.5 g/ha: 62.5 g ai/ha, read-out: Corn damage rating (100=total damage to plant; 0=no damage to plant); for plant injury at 62.5 g/ha / plant injury at 250 g/ha: evaluated after 13 days; for plant injury at 250 g/ha: 250 g ai/ha, read-out: damage to plant, Corn (100=total damage to plant; 0=no damage to plant)
Procedure, shortened: as §1

[4] = test system: redroot pigweed (Amaranthus retroflexus); experiment: Test G Post-Emergence Protocol; conditions: Amaranthus retroflexus, post-emergence, 312 h; for pest or weed control at 15.625 g/ha: 15.625 g ai/ha, evaluated after 13 days (100=total damage to plant; 0=no damage to plant), read-out: Pigweed, Redroot damage rating; for pest or weed control at 62.5 g/ha: 62.5 g ai/ha, read-out: Pigweed, Redroot damage rating (100=total damage to plant; 0=no damage to plant); for pest or weed control at 62.5 g/ha / pest or weed control at 250 g/ha: evaluated after 13 days; for pest or weed control at 250 g/ha: 250 g ai/ha, read-out: damage to plant, Pigweed, Redroot (100=total damage to plant; 0=no damage to plant)
Procedure, shortened: as §1

[5] = test system: barnyardgrass (Echinochloa crus-galli); experiment: Test G Post-Emergence Protocol; conditions: Echinochloa crus-galli, post-emergence, 312 h; for pest or weed control at 15.625 g/ha: 15.625 g ai/ha, evaluated after 13 days (100=total damage to plant; 0=no damage to plant), read-out: Barnyardgrass damage rating; for pest or weed control at 62.5 g/ha: 62.5 g ai/ha, read-out: Barnyardgrass damage rating (100=total damage to plant; 0=no damage to plant); for pest or weed control at 62.5 g/ha / pest or weed control at 250 g/ha: evaluated after 13 days; for pest or weed control at 250 g/ha: 250 g ai/ha, read-out: damage to plant, Barnyardgrass (100=total damage to plant; 0=no damage to plant)
Procedure, shortened: as §1

[6] = test system: giant foxtail (Setaria faberi); experiment: Test G Post-Emergence Protocol; conditions: Setaria faberi, post-emergence, 312 h; for pest or weed control at 15.625 g/ha: 15.625 g ai/ha, evaluated after 13 days (100=total damage to plant; 0=no damage to plant), read-out: Foxtail, Giant damage rating; for pest or weed control at 62.5 g/ha: 62.5 g ai/ha, read-out: Foxtail, Giant damage rating (100=total damage to plant; 0=no damage to plant); for pest or weed control at 62.5 g/ha / pest or weed control at 250 g/ha: evaluated after 13 days; for pest or weed control at 250 g/ha: 250 g ai/ha, read-out: damage to plant, Foxtail, Giant (100=total damage to plant; 0=no damage to plant)
Procedure, shortened: as §1

[7] = test system: ivy-leaved morning glory (Ipomoea hederacea); experiment: Test G Pre-Emergence Protocol; conditions: Ipomoea, pre-emergence, 312 h, evaluated after 13 days; for pest or weed control at 15.625 g/ha: 15.625 g ai/ha, read-out: Morning-glory, Ivy-leaved damage rating (100=total damage to plant; 0=no damage to plant); for pest or weed control at 62.5 g/ha: 62.5 g ai/ha, 100=total damage to plant, 0=no damage to plant, read-out: plant damage rating, Morningglory, Ivy-leaved; for pest or weed control at 250 g/ha: 250 g ai/ha, read-out: Morningglory, Ivy-leaved damage rating (100=total damage to plant; 0=no damage to plant)
Procedure, shortened: (§2)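 Pre-emergence spray, 15.625/62.5/250 g/ha, vehicle acetone:water 50:50 + 0.5% Tween 20, applied 1 d after sowing. Glasshouse 24/16° C, 14 h light, 65% RH, watered twice daily. Visual damage rating at 13 d, 0–100 scale.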

[8] = test system: velvetleaf (Abutilon theophrasti); experiment: Test G Pre-Emergence Protocol; conditions: Abutilon theophrasti, pre-emergence, 312 h, evaluated after 13 days; for pest or weed control at 15.625 g/ha: 15.625 g ai/ha; for pest or weed control at 15.625 g/ha / pest or weed control at 250 g/ha: read-out: Velvetleaf damage rating (100=total damage to plant; 0=no damage to plant); for pest or weed control at 62.5 g/ha: 62.5 g ai/ha, 100=total damage to plant, 0=no damage to plant, read-out: plant damage rating, Velvetleaf; for pest or weed control at 250 g/ha: 250 g ai/ha
Procedure, shortened: as §2

[9] = test system: corn (Zea mays); experiment: Test G Pre-Emergence Protocol; conditions: Zea mays, pre-emergence, 312 h, evaluated after 13 days; for plant injury at 15.625 g/ha: 15.625 g ai/ha; for plant injury at 15.625 g/ha / plant injury at 250 g/ha: read-out: Corn damage rating (100=total damage to plant; 0=no damage to plant); for plant injury at 62.5 g/ha: 62.5 g ai/ha, 100=total damage to plant, 0=no damage to plant, read-out: plant damage rating, Corn; for plant injury at 250 g/ha: 250 g ai/ha
Procedure, shortened: as §2

[10] = test system: redroot pigweed (Amaranthus retroflexus); experiment: Test G Pre-Emergence Protocol; conditions: Amaranthus retroflexus, pre-emergence, 312 h, evaluated after 13 days; for pest or weed control at 15.625 g/ha: 15.625 g ai/ha; for pest or weed control at 15.625 g/ha / pest or weed control at 250 g/ha: read-out: Pigweed, Redroot damage rating (100=total damage to plant; 0=no damage to plant); for pest or weed control at 62.5 g/ha: 62.5 g ai/ha, 100=total damage to plant, 0=no damage to plant, read-out: plant damage rating, Pigweed, Redroot; for pest or weed control at 250 g/ha: 250 g ai/ha
Procedure, shortened: as §2

[11] = test system: barnyardgrass (Echinochloa crus-galli); experiment: Test G Pre-Emergence Protocol; conditions: Echinochloa crus-galli, pre-emergence, 312 h, evaluated after 13 days; for pest or weed control at 15.625 g/ha: 15.625 g ai/ha, read-out: Barnyard grass damage rating (100=total damage to plant; 0=no damage to plant); for pest or weed control at 62.5 g/ha: 62.5 g ai/ha, 100=total damage to plant, 0=no damage to plant, read-out: plant damage rating, Barnyardgrass; for pest or weed control at 250 g/ha: 250 g ai/ha, read-out: Barnyardgrass damage rating (100=total damage to plant; 0=no damage to plant)
Procedure, shortened: as §2

[12] = test system: giant foxtail (Setaria faberi); experiment: Test G Pre-Emergence Protocol; conditions: Setaria faberi, pre-emergence, 312 h, evaluated after 13 days; for pest or weed control at 15.625 g/ha: 15.625 g ai/ha; for pest or weed control at 15.625 g/ha / pest or weed control at 250 g/ha: read-out: Foxtail, Giant damage rating (100=total damage to plant; 0=no damage to plant); for pest or weed control at 62.5 g/ha: 62.5 g ai/ha, 100=total damage to plant, 0=no damage to plant, read-out: plant damage rating, Foxtail, Giant; for pest or weed control at 250 g/ha: 250 g ai/ha
Procedure, shortened: as §2

SMILES | pest or weed control at 15.625 g/ha [1] [%] | pest or weed control at 62.5 g/ha [1] [%] | pest or weed control at 250 g/ha [1] [%] | pest or weed control at 15.625 g/ha [2] [%] | pest or weed control at 62.5 g/ha [2] [%] | pest or weed control at 250 g/ha [2] [%] | plant injury at 15.625 g/ha [3] [%] | plant injury at 62.5 g/ha [3] [%] | plant injury at 250 g/ha [3] [%] | pest or weed control at 15.625 g/ha [4] [%] | pest or weed control at 62.5 g/ha [4] [%] | pest or weed control at 250 g/ha [4] [%] | pest or weed control at 15.625 g/ha [5] [%] | pest or weed control at 62.5 g/ha [5] [%] | pest or weed control at 250 g/ha [5] [%] | pest or weed control at 15.625 g/ha [6] [%] | pest or weed control at 62.5 g/ha [6] [%] | pest or weed control at 250 g/ha [6] [%] | pest or weed control at 15.625 g/ha [7] [%] | pest or weed control at 62.5 g/ha [7] [%] | further results
CN1C[C@@H](c2ccc(C(F)(F)F)nc2)[C@H](C(=O)Nc2cccc(F)c2F)C1=O (racemic) [Compound 1458] | 10 | 20 | 30 | 0 | 0 | 0 | 10 | 10 | 10 | 10 | 30 | 30 | 10 | 20 | 20 | 30 | 50 | 60 | 0 | 0 | pest or weed control at 250 g/ha [7]: 20%; pest or weed control at 15.625 g/ha [8]: 0%; pest or weed control at 62.5 g/ha [8]: 0%; pest or weed control at 250 g/ha [8]: 30%; plant injury at 15.625 g/ha [9]: 0%; plant injury at 62.5 g/ha [9]: 0%; plant injury at 250 g/ha [9]: 50%; pest or weed control at 15.625 g/ha [10]: 0%; pest or weed control at 62.5 g/ha [10]: 0%; pest or weed control at 250 g/ha [10]: 70%; pest or weed control at 15.625 g/ha [11]: 20%; pest or weed control at 62.5 g/ha [11]: 80%; pest or weed control at 250 g/ha [11]: 80%; pest or weed control at 15.625 g/ha [12]: 20%; pest or weed control at 62.5 g/ha [12]: 80%; pest or weed control at 250 g/ha [12]: 80%
CC(C)c1cc(NC(=O)[C@@H]2C(=O)N(C)C[C@H]2c2ccc(C(F)(F)F)cc2)[nH]n1 (racemic) [Compound 1522] | 0 | 0 | 0 | 0 | 0 | 0 | 0 | 10 | 10 | 0 | 0 | 0 | 0 | 0 | 0 | 0 | 0 | 0 | 0 | 0 | pest or weed control at 250 g/ha [7]: 0%; pest or weed control at 15.625 g/ha [8]: 0%; pest or weed control at 62.5 g/ha [8]: 0%; pest or weed control at 250 g/ha [8]: 0%; plant injury at 15.625 g/ha [9]: 0%; plant injury at 62.5 g/ha [9]: 0%; plant injury at 250 g/ha [9]: 0%; pest or weed control at 15.625 g/ha [10]: 0%; pest or weed control at 62.5 g/ha [10]: 0%; pest or weed control at 250 g/ha [10]: 0%; pest or weed control at 15.625 g/ha [11]: 0%; pest or weed control at 62.5 g/ha [11]: 0%; pest or weed control at 250 g/ha [11]: 0%; pest or weed control at 15.625 g/ha [12]: 0%; pest or weed control at 62.5 g/ha [12]: 0%; pest or weed control at 250 g/ha [12]: 0%
CN1C[C@@H](c2ccc(C(F)(F)F)cc2)[C@H](C(=O)Nc2ccn[nH]2)C1=O (racemic) [Compound 1573] | 0 | 0 | 0 | 0 | 0 | 0 | 0 | 0 | 0 | 0 | 0 | 0 | 0 | 0 | 0 | 0 | 0 | 0 | 0 | 0 | pest or weed control at 250 g/ha [7]: 0%; pest or weed control at 15.625 g/ha [8]: 0%; pest or weed control at 62.5 g/ha [8]: 0%; pest or weed control at 250 g/ha [8]: 0%; plant injury at 15.625 g/ha [9]: 0%; plant injury at 62.5 g/ha [9]: 0%; plant injury at 250 g/ha [9]: 0%; pest or weed control at 15.625 g/ha [10]: 0%; pest or weed control at 62.5 g/ha [10]: 0%; pest or weed control at 250 g/ha [10]: 0%; pest or weed control at 15.625 g/ha [11]: 0%; pest or weed control at 62.5 g/ha [11]: 0%; pest or weed control at 250 g/ha [11]: 0%; pest or weed control at 15.625 g/ha [12]: 0%; pest or weed control at 62.5 g/ha [12]: 0%; pest or weed control at 250 g/ha [12]: 0%
